The record followed here is PubChem BioAssay AID1117361 (Southern Research Institute, 2015).

By IC50 is commonly meant the concentration needed to halve the response being measured.

Sequence of Protein Tat (Human immunodeficiency virus type 1 group M subtype B (isolate HXB2)) (P04608 whole entry, looked up): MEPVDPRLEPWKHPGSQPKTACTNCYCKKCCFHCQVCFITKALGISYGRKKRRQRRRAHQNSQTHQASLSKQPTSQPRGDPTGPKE

The test concerns the target Protein Tat (Human immunodeficiency virus type 1 group M subtype B (isolate HXB2)) (UniProt P04608). Nature of the test: HIV-1 Tat–TAR interaction blockers – biochemical, fluorescence polarization, FAM-labeled TAR RNA, counter-screen for Vif-APOBEC3G degradation inhibitor project, dose response (AID 1117361). Conditions: Tat-TAR RNA binding. (Polarisation of emitted light reports the rotation of a fluorescent probe.)
On to `C=C(C)C(=O)Nc1cccc(C2=NOC3(C2)C[C@@H](C(N)=O)N(C(=O)CCCCC)C3)c1` (some centres undefined), for which the concentration for half-maximal inhibition (IC50) was 5.76 µM.

Turning to `O=C1NC(=Nc2ccc(O)cc2)S/C1=C\C=C\c1ccco1`, the IC50 is 18.3 µM.

As for `CCCN1C(=O)S/C(=C\c2ccc(N3CCOCC3)cc2C)C1=O`, the half-inhibitory concentration (IC50) is 1.92 µM.

As for `C=CC1=C(C(=O)O)N2C(=O)C(NC(=O)Cc3ccccc3)C2SC1` (centres undefined), the IC50 is 64.2 µM.

In the case of `Cc1nn(-c2ccccc2)c2sc(C(=O)N3CCc4ccccc4C3)cc12`, the concentration for half-maximal inhibition (IC50) is 40.1 µM.

As to `CC1S/C(=N/N=C/c2ccco2)NC1=O` (centres undefined), the IC50 was 70.3 µM.

Turning to `C=CCNc1nc2ccccc2nc1NS(=O)(=O)c1cccs1`, the half-inhibitory concentration (IC50) was 45 µM.

On to `COc1ccc2c(c1)n([O-])c1c([n+]2=O)CCC1`, for which the IC50 is 52.1 µM.

On to `O=C(C1CCCO1)N1CCC2(CC1)OCCO2` (centres undefined), for which the half-maximal inhibitory concentration (IC50) is 5.55 µM.

For the molecule `N#Cc1c(NC(=O)CSc2ncnc3sccc23)oc(-c2ccco2)c1-c1ccco1`, the IC50 is 2.52 µM.

As to `COc1cccc(-n2c(Cc3cc(=O)[nH]c(=O)[nH]3)nnc2SCC(=O)NC2CCCC2)c1`, the IC50 is 10.1 µM.

On to `Cc1ccc(C2SCC(=O)N2Cc2cn3ccsc3n2)o1` (centres undefined), for which the IC50 was 68.5 µM.

Turning to `O=C1/C(=C/c2ccco2)Oc2c1ccc(O)c2CN1CCCCC1`, the IC50 was 4.3 µM.

`CC(C)Cn1c(SCC(=O)NC(=O)Nc2ccc3c(c2)OCCO3)nc2ccccc2c1=O`: the half-inhibitory concentration (IC50) is 1.62 µM.

Turning to `CN1CCc2cccc3c2[C@H]1Cc1ccc(O)c(O)c1-3`, the IC50 is 19.1 µM.

Turning to `CNc1ccc(Br)cc(C(=O)/C=C/c2ccc(OC)cc2OC)c1=O`, the half-maximal inhibitory concentration (IC50) is 52 µM.

On to `CC(/C=C1\SC(=S)N(CCCC(=O)Nc2ccc(C(=O)O)c(O)c2)C1=O)=C\c1ccccc1`, for which the IC50 was 26 µM.

As for `COc1cc(NCCCCCCN)c2ncccc2c1OC`, the IC50 was 56.7 µM.

Consider `O=C(N/N=C/C(Br)=C/c1ccccc1)c1cc(-c2ccco2)[nH]n1`, for which the IC50 is 8.53 µM.

For the molecule `Cc1cc2c(c(=O)o1)C(c1ccc([N+](=O)[O-])o1)C(C#N)=C(N)O2` (centres undefined), the half-inhibitory concentration (IC50) was 9.96 µM.

On to `Cc1ccc(N2C(=O)/C(=C/c3ccc(CN(CCC#N)S(C)(=O)=O)o3)C(=O)NC2=S)cc1`, for which the half-inhibitory concentration (IC50) is 90 µM.

As to `COc1ccc(NC(=O)CN(C)C(=O)c2cc(-c3ccco3)nc3ccccc23)cc1`, the IC50 is 46.4 µM.

As to `COc1ccc(C2=NCC(=O)N(CC(=O)NCc3ccco3)c3sc4c(c32)CCCC4)cc1OC`, the IC50 is 82.3 µM.

As to `O=C1NC(=O)N(c2ccccc2)C(=O)/C1=C\c1ccc([N+](=O)[O-])s1`, the 50% inhibitory concentration (IC50) is 10.7 µM.

With `CN1C(=O)/C(=C/c2cccn2-c2ccc3ccccc3c2)C(=O)NC1=S`, the IC50 was 44.5 µM.

Take `O=C(CSc1nnnn1-c1ccccc1)Nc1ncc2c(n1)CC(c1ccco1)CC2=O` (centres undefined): the half-maximal inhibitory concentration (IC50) is 58.5 µM.

Turning to `COc1ccc2c(c1OC)C(=O)OC2CC(=O)c1ccc(O)c(O)c1` (centres undefined), the IC50 is 80.5 µM.

Turning to `CC(=O)NN1C(=O)/C(=C/c2ccc(Br)o2)SC1=S`, the IC50 was 36.2 µM.

Turning to `CCNc1ccc(Br)cc(C(=O)/C=C/c2ccc(Cl)cc2)c1=O`, the half-maximal inhibitory concentration (IC50) was 12.5 µM.

`Cc1cc(/C=C2\C(=O)NC(=O)N(c3cccc(F)c3)C2=O)c(C)n1-c1cc(C(=O)O)cc(C(=O)O)c1`: the half-maximal inhibitory concentration (IC50) was 2.95 µM.

Consider `CCn1c(C)nc2cc(C(=O)N/N=C/c3ccc(O)c(O)c3O)ccc21`, for which the IC50 was 15.3 µM.

Consider `CCN(CC)S(=O)(=O)c1cccc(C(=O)N/N=C/c2ccc(O)c(O)c2O)c1`, for which the IC50 was 92.7 µM.

As to `Cc1noc(/C=C/c2ccco2)c1S(=O)(=O)N1CCC(C(=O)NCc2ccco2)CC1`, the half-maximal inhibitory concentration (IC50) is 6.93 µM.

In the case of `O/N=C1\CCC\C1=C/c1ccco1`, the concentration for half-maximal inhibition (IC50) is 27.2 µM.

Take `O=C1Cc2cccc(=O)c(O)c2C(=O)O1`: the IC50 is 87.7 µM.

Consider `COc1ccccc1NC(=O)CSc1nnc(Cc2cc(=O)[nH]c(=O)[nH]2)n1-c1ccccc1`, for which the IC50 was 66.5 µM.

With `O=C1CC(/C=C/c2ccco2)=Nc2ccccc2N1`, the half-inhibitory concentration (IC50) is 6.84 µM.

Regarding `O=C(Nc1nnc(C2CCCO2)s1)c1cccs1` (centres undefined), the IC50 was 98.8 µM.

As for `CC(=O)c1sc(C(=O)O)c(-c2ccco2)c1-c1ccco1`, the IC50 is 4.86 µM.

Consider `CCN1C[C@@H]2[C@@H]3C(=O)N(Cc4ccccc4)C(=O)[C@@H]3[C@](C)(C(=O)OC)N2C1=NC1CCCCC1`, for which the IC50 is 79.8 µM.

With `COc1ccc2[nH]c3c4c(ccc3c2c1)C(=O)C=CC4=O`, the 50% inhibitory concentration (IC50) is 24.7 µM.

For the molecule `C=C(C)C(=O)Nc1cccc(C2=NOC3(C2)C[C@H](C(N)=O)N(C(=O)C(c2ccccc2)c2ccccc2)C3)c1` (some centres undefined), the IC50 was 31.7 µM.

As for `COc1ccc(OC)c(N2C(=O)[C@@H]3C(c4ccccc4Cl)=NO[C@@H]3C2=O)c1`, the half-inhibitory concentration (IC50) is 82.1 µM.

For `Cc1cccc(N(C(=O)Cn2nnc3ccccc32)C(C(=O)NCc2ccco2)c2ccncc2)c1C` (centres undefined), the IC50 was 27.6 µM.

Regarding `Cc1cc(C)cc(Nc2ncc3c(n2)CC(c2ccco2)CC3=O)c1` (centres undefined), the 50% inhibitory concentration (IC50) is 42.7 µM.

With `CCn1cc(CNC(=O)c2ccc(Cl)c([N+](=O)[O-])c2)c(C)n1`, the half-inhibitory concentration (IC50) was 43 µM.

As to `COc1ccccc1NCCC(=O)OCC(=O)NCc1ccco1`, the concentration for half-maximal inhibition (IC50) is 58 µM.

As to `NC(=O)c1c(NC(=O)c2ccc(S(=O)(=O)N3CCOCC3)cc2)sc2c1CCCCC2`, the half-inhibitory concentration (IC50) was 58.3 µM.

`CCCSC1=N/C(=C\c2ccc([N+](=O)[O-])o2)C(=O)S1`: the 50% inhibitory concentration (IC50) is 7.37 µM.

Regarding `O=C(O)C1Nc2c(C(=O)N3CCOCC3)cccc2C2C=CCC12` (centres undefined), the IC50 is 8.99 µM.

As for `CN(C)c1cc(Cl)c2nonc2c1N`, the IC50 is 87.2 µM.

For `c1cncc(-c2nnc3sc(-c4ccco4)nn23)c1`, the IC50 is 64 µM.

`O=C1NC(c2ccc(Br)cc2)=N/C1=C/c1ccco1`: the IC50 was 6.78 µM.

For `C=CC(=O)N1C/C(=C/c2ccc(F)cc2)C(=O)/C(=C\c2ccc(F)cc2)C1`, the IC50 is 89.5 µM.

Turning to `Cc1cc(C(=O)CSc2nnnn2C)c(C)n1CCc1ccc(Cl)cc1`, the IC50 was 84.6 µM.

Regarding `CCCOc1ccc(Cc2nn3c(=O)/c(=C/c4ccco4)sc3nc2=O)cc1`, the IC50 is 2.68 µM.

As to `CC1CCC/C(=C\Nc2ccc(C(=O)O)c(O)c2)C1=O` (centres undefined), the IC50 is 5.37 µM.

As to `CCC1=NN2C(=N)/C(=C\c3ccc(SCc4ccco4)o3)C(=O)N=C2S1`, the IC50 was 63.3 µM.

`N#CC1=C(N)OC2=C(CCC/C2=C/c2ccoc2)C1c1ccoc1` (centres undefined): the IC50 is 7.35 µM.

In the case of `CCN(CC)c1ccc(/C=N/n2c(C)cc(C)cc2=O)cc1`, the IC50 is 5.27 µM.

On to `C=C(C)C(=O)Nc1cccc(C2=NOC3(C2)C[C@@H](C(N)=O)N(C(=O)CC(c2ccccc2)c2ccccc2)C3)c1` (some centres undefined), for which the IC50 is 29.3 µM.

In the case of `CN1CCc2c(sc3c2c(NCc2ccco2)nc2nnnn23)C1`, the IC50 is 79.8 µM.

On to `COC(=O)C1C(O)C(C)C(O)C(C)(O)/C=C\C=C(/C)C(=O)Nc2c(C)c(OC(C)=O)c3c(c2O)C(=O)C(C)=C2OCOC(=C23)/C(C)=C/C(C)(O)C(O)C(C)C1O` (centres undefined), for which the 50% inhibitory concentration (IC50) is 54.6 µM.

As for `COc1ccccc1-n1c(-c2cc(-c3ccco3)[nH]n2)n[nH]c1=S`, the IC50 is 5.36 µM.

On to `Cc1ccccc1Cc1c(C)nc2c(C(=O)NCc3ccc4c(c3)OCO4)cnn2c1C`, for which the IC50 is 1.06 µM.

Consider `COC(=O)c1ccc(CC(=O)c2c(C)cc(O)cc2O)o1`, for which the concentration for half-maximal inhibition (IC50) is 11.2 µM.

Regarding `O=C(O)C1OC(Oc2c(-c3ccc(O)c(O)c3)oc3cc(O)cc(O)c3c2=O)C(O)C(O)C1O` (centres undefined), the IC50 was 2.12 µM.

In the case of `O=C(O)CCc1ccc(S(=O)(=O)Nc2cc(C(F)(F)F)ccc2N2CCCC2)cc1`, the concentration for half-maximal inhibition (IC50) is 68.2 µM.

For `C(=C\c1ccco1)/C=N/n1cnnc1`, the half-inhibitory concentration (IC50) was 10.4 µM.

In the case of `N#Cc1c(-c2ccco2)c2c([nH]c1=S)CCCC2`, the IC50 was 8.34 µM.

In the case of `Cc1cccc(-n2c(Cc3cc(=O)[nH]c(=O)[nH]3)nnc2SCC(=O)NCC2CCCO2)c1` (centres undefined), the IC50 is 58.5 µM.

Turning to `O=C(/C(=N/N=C/c1ccc(O)c(O)c1O)c1ccccc1)c1ccccc1`, the IC50 was 35.2 µM.

For the molecule `O=C1/C(=C/C=C/c2ccco2)SC(=S)N1NS(=O)(=O)c1ccccc1`, the IC50 is 2.48 µM.

As to `COc1ccc2ccccc2c1C1CC(=O)N2CN(Cc3ccco3)CSC2=C1C#N` (centres undefined), the IC50 is 67.7 µM.

Turning to `CCc1cc(=O)n2[nH]c(C)c(-c3ccccc3OC)c2n1`, the IC50 is 12.7 µM.

In the case of `Cc1cccc(C)c1NC(=O)CSc1nnc(-c2ccco2)c(-c2ccco2)n1`, the IC50 was 6.43 µM.

As for `CN(C)c1ncc(C2=C(Cl)C(=O)C(N3CCCC3)=C(Cl)C2=O)s1`, the half-maximal inhibitory concentration (IC50) was 1.54 µM.

In the case of `COC(=O)C1=C(C)NC(=O)/C1=C\c1cc(C)n(-c2ccccc2C)c1C`, the 50% inhibitory concentration (IC50) is 28.7 µM.

With `CCOC(=O)N1CC=C2C(C#N)=C(N)C(C#N)(C#N)[C@H](c3cccs3)[C@H]2C1`, the 50% inhibitory concentration (IC50) was 15.3 µM.

Regarding `O=[N+]([O-])c1ccc(-c2ccc(/C=N/c3c(-c4ccco4)nc4ccccn34)o2)cc1`, the half-maximal inhibitory concentration (IC50) is 1.4 µM.

As for `N=C1/C(=C/c2ccc(Br)o2)C(=O)N=C2SC(CC(=O)N3CCCC3)=NN12`, the IC50 is 53.7 µM.

Turning to `Cc1nc2ncccn2c1-c1csc(NCc2ccco2)n1`, the 50% inhibitory concentration (IC50) was 6.08 µM.

For `Cc1cccc(N2C(=O)NC(=O)/C(=C/c3cc4c(cc3[N+](=O)[O-])OCO4)C2=O)c1`, the IC50 is 0.906 µM.

Regarding `C=C(C)C(=O)Nc1cccc(C2=NOC3(C2)C[C@@H](C(N)=O)N(C(=O)/C=C/CC)C3)c1` (some centres undefined), the half-inhibitory concentration (IC50) is 24.5 µM.

Consider `O=C(O)CSc1c2c(nc3cc(C(=O)Nc4cccc(C(F)(F)F)c4)ccc13)CCC2`, for which the IC50 was 56.2 µM.

Turning to `C=CCn1c(SCC(=O)NCCCC)nc2scc(-c3ccco3)c2c1=O`, the IC50 was 17.8 µM.

As for `Cc1ccc(N2C(=O)/C(=C\c3ccco3)SC2=S)cc1`, the IC50 was 36 µM.

Regarding `CC(=O)NC1=NC(=O)/C(=C/c2cc(C)n(-c3cccc(C(=O)O)c3)c2C)S1`, the IC50 is 29.7 µM.

As for `O=C1C2C3CCCC3=C3CCCC3C2C(=O)N1c1ccccc1` (centres undefined), the IC50 is 8.28 µM.

Consider `O=c1cc(-c2ccc(O)cc2)oc2c(O)c(O)c(O)c(O)c12`, for which the IC50 is 74.9 µM.

On to `Cn1cnnc1SCC(=O)Nc1ncc([N+](=O)[O-])s1`, for which the IC50 is 58.2 µM.

Turning to `C=CCN=c1scc(-c2ccco2)n1/N=C/c1ccc(O)c(O)c1O`, the IC50 was 35.4 µM.

Turning to `CCCCC1=CC2=CC(=O)C(C)(OC(=O)c3cnc4ccccc4n3)C(=O)C2=CO1` (centres undefined), the IC50 is 7.3 µM.

As to `O=S(=O)(O)c1cc(O)c(N=Nc2ccc(O)cc2O)c2ccccc12`, the half-maximal inhibitory concentration (IC50) was 51.3 µM.
